Test system: control neuropathic mice
Assay: Pain behaviors in control neuropathic mice not expressing hM4-mCherry in the BLA
Type: in vivo
Details: absence of hM4 expression, CNO 10 mg/kg, morphine as positive control
Source text: To induce a chronic pain state, we used a modified version of the Spared Nerve Injury (SNI) model of neuropathic pain, as previously described (70). This model entails surgical section of two of the sciatic nerve branches (common peroneal and tibial branches) while sparing the third (sural branch). […] To perform this peripheral nerve injury procedure, anesthesia was induced and maintained throughout surgery with isoflurane (4% induction, 1.5% maintenance in oxygen). The left hind leg was shaved and wiped clean with alcohol and betadine. We made a 1-cm incision in the skin of the mid-dorsal thigh, approximately where the sciatic nerve trifurcates. The biceps femoris and semimembranosus muscles were gently separated from one another with blunt scissors, thereby creating a <1-cm opening between the muscle groups to expose the common peroneal, tibial, and sural branches of the sciatic nerve. Next, −2 mm of both the common peroneal and tibial nerves were transected and removed, without suturing and with care not to distend the sural nerve. The leg muscles are left uncultured and the skin was closed with tissue adhesive (3M Vetbond), followed by a Betadine application. During recovery from surgery, mice were placed under a heat lamp until awake and achieved normal balanced movement. Mice were then returned to their home cage and closely monitored over the following three days for well-being.
To evaluate mechanical reflexive sensitivity, we used a logarithmically increasing set of 8 von Frey filaments (Stoelting), ranging in gram force from 0.07- to 6.0-g (93). These filaments were applied perpendicular to the plantar hindpaw with sufficient force to cause a slight bending of the filament. […] Using the Up-Down statistical method, the 50% withdrawal mechanical threshold scores were calculated for each mouse and then averaged across the experimental groups. The response frequency was calculated as the number of positive responses out of 10 stimulations, delivered at 30-s intervals.
To evaluate affective-motivational responses evoked by thermal stimulation (81), we applied either a single, unilateral 50-μL drop of water (5, 30, or 55° C.) or acetone (evaporative cooling) to the left hindpaw, and the duration of attending behavior was collected for up to 60 s after the stimulation. […] The track was subdivided into 25 temperature zones (4.8-cm D per zone), and we assessed the temperature at the center of each zone by a K-probe thermocouple. […] A video camera placed above the track recorded the position of the mouse within the temperature zones, and videos were later analyzed using a video-tracking software (Etho-vision, Noldus) for duration of zone occupancy, zone visits, distance, velocity, and acceleration.

## CN1CC[C@]23c4c5ccc(O)c4O[C@H]2[C@@H](O)C=C[C@H]3[C@H]1C5 [Morphine]
Acetone drop
  affective-motivational behaviors: reduced
Von Frey filaments
  reflex behaviors: reduced

From US20210220489A1, “AMYGDALAR NEURAL ENSEMBLE THAT ENCODES THE UNPL[…] PAIN” (The Board of Trustees of the Leland Stanford Junior …, priority 2020, published 2021)
